Experimental data taken from patent publication US7498404B2, “Compositions, methods and uses for a novel family of peptides” (priority 2004, dated 2009).
Marks after values point to notes of the source that are not given here.

Key:
S. cerevisiae = assay: Antifungal MIC; assay type: cell-based
Salmonella = assay: MIC against Salmonella; assay type: cell-based
Procedure: (§1) MIC determination assays. Staphylococcal aureus was grown to mid-log phase in LB at 37° C., and diluted by 500-fold with fresh LB and dispensed into 96-well micro-titer plates. Different concentrations of peptides were added, and the micro-titer plates were incubated at 37° C. with shaking. A minimal inhibition concentration (MIC) was determined as the lowest peptide concentration that produced a clear well. All experiments were performed in triplicates, and highly consistent MICs were obtained.
(§2) For Gram (−) the following were the antimicrobial activities observed: E. coli: MIC>20 microgram/ml; Pseudomonas and Salmonella: MIC>100 microgram/ml.

Tetrahymena = assay: Anti-protozoal MIC; assay type: cell-based
food-producing animals = assay: Growth promotion in food-producing animals (overall statement); assay type: in vivo, chicken
Excerpt: Furthermore, unlike conventional antibiotics, the present invention may target the bacterial membrane, and there is currently not a drug target that can be altered with one or two mutations to allow development of drug resistance. […] Alternatively, but in no way limiting the present invention, the present invention may be used as an animal-use only antibiotic for bacterial infections. Also, to date, there has been no observed decrease in the growth promoting activity of the peptide.

straight run broilers [1] = assay: Growth promoting Studies 2-1 and 2-2, mash feed, batteries; assay type: in vivo, chicken
Procedure: Briefly, the peptide was used in a semi-purified form to study the growth and feed conversion of […] old straight run broilers in batteries (Studies 2-1 and 2-2). Two amounts were tested against a feed control, peptide at 6 ppm and peptide at 12 ppm, 12 repetitions were carried out per treatment with 4 birds per pen. The diet used in the study was as follows.

Pseudomonas = assay: MIC against Pseudomonas; assay type: cell-based
Procedure: as §1, §2

[2] = assay type: physicochemical
E. coli = assay: MIC against E. coli; assay type: cell-based
Procedure: as §1, §2

[3] = Broiler floor pen trial, 42 days, natural colibacillosis challenge; assay type: in vivo, chicken
Procedure: A broiler floor pen trial to compare the performance of a new anti-microbial designated for this project as BT1583 alone and in combination with the widely used coccidiostat monensin (MON) to MON fed alone, MON in combination with the also widely used antimicrobial Bacitracin MD (BMD) and BMD alone.
The following levels of each treatment were evaluated:
The study design included 10 pens per treatment and 40 birds per pen housed on day of hatch. Two basal corn-soy based diets of decreasing protein (approximately 23 to 20%) and increasing metabolizable energy (approximately 1400 to 1455 kcal/lb) were used from Day 0 to 21 (starter feed) and Days 22 to 42 (grower feed), respectively. Treatment premixes were measured and blended into diets at required levels. Between days 0 and 21 mortality was less than 1% with all birds growing optimally and of high health across all groups.
Beginning on study day 22, the study director modulated house temperature and air flow to mimic industry conditions conducive to outbreaks of colibacillosis within naive broiler flocks. This was done to stimulate a natural challenge for this study. Mortality climbed to a house average of approximately 10% by Day 42. A majority of these deaths occurred in groups not receiving BT1583 or MON. Lesions were consistent with those of colibacillosis (air sac, pneumonia, peri-hepatitis, peri-carditis and extreme morbidity). All mortality was documented (weight at death and post-mortem observations). All birds and feeds were weighed at 42 days. All remaining birds were euthanized on Day 42 by asphyxiation with the carcasses submitted for rendering.
The following variables were tested: Response Variables: Gain Per Bird, Feed Per Gain, Mortality (%), Adjusted Feed Per Gain. F test from One Way ANOVA with one blocking factor=location, at Day 42 using 0.05 level of significance.
All Response Variables: LSD T-test procedure for pair-wise comparisons with Type 1 error of means when ANOVA F ratio is significant, overall significance level of 0.05 used. Lines below means (see Table 30, below) indicate groups with insignificant differences in means.
Adjusted Feed/Gain: The total weight of mortality in each pen was added to the final live weight, that value reduced by subtracting the initial weight and then dividing that value into the Total feed consumed to calculate the Adjusted Feed/Gain.

Broiler Chicken [4] = assay: Growth promoting Studies 1-1 and 1-2 (21-day battery study); assay type: in vivo
Gram-positive bacteria = assay: MIC against Gram-positive bacteria; assay type: cell-based; settings: most Gram (+)
Procedure: as §1, §2

Broiler Chicken [5] = assay: Growth promoting Studies 4-1 and 4-2 with direct coccidial challenge; assay type: in vivo
straight run broilers [6] = assay: Growth promoting Studies 3-1 and 3-2, pelleted starter feed, batteries; assay type: in vivo, chicken
Excerpt: Eight (8) study repetitions per treatment were used, again with 4 birds per pen.

carboxypeptidase Y = molecular target: T1, carboxypeptidase Y (Saccharomyces cerevisiae, UniProt P00729)
T1 sequence (P00729 112-532): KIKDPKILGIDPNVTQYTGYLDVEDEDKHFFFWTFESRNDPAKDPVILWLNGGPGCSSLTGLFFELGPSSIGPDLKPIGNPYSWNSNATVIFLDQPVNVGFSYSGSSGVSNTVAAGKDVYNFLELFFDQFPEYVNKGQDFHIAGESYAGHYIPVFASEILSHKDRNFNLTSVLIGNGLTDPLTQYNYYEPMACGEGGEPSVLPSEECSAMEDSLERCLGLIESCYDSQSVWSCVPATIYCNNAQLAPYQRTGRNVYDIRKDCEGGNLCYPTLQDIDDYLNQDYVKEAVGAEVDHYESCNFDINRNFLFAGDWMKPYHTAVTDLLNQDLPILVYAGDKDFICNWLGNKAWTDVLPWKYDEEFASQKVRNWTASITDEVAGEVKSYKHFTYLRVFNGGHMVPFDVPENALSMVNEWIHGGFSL

[7] = MON 99 ppm, BT1583 12 ppm, BMD 55 ppm, alone or combined
[8] = Study 4-1, 24 ppm with direct coccidial challenge
[9] = Study 4-2, 48 ppm with direct coccidial challenge
[10] = Study 3-2, 12 ppm with Coban (vs Coban alone)

Substance: Me2Bmt-L-dO-I-V-V-dK-V-dL-K-dY-L-Vol [BT1583]
- MIC (S. cerevisiae): 50 microgram/ml
- MIC (Salmonella): > 100 microgram/ml
- MIC (Tetrahymena): 25 microgram/ml
- feed conversion improvement (food-producing animals): about 10 points
- Additional weight gain (%) (straight run broilers [1]; Study 2-1, 6 ppm): 6.7%
- Feed conversion improvement (point) (straight run broilers [1]; Study 2-1, 6 ppm): 9 point
- Additional weight gain (%) (straight run broilers [1]; Study 2-2, 12 ppm): 11%
- Feed conversion improvement (point) (straight run broilers [1]; Study 2-2, 12 ppm): 10 point
- 20-day cumulative weight gain, Mean (straight run broilers [1]; Table 9, 6 ppm in feed): 591.9750
- 20-day cumulative weight gain, Mean (straight run broilers [1]; Table 9, 12 ppm in feed): 618.9340
- 20-day cumulative weight gain, estimated marginal Mean (straight run broilers [1]; Table 11, 6 ppm in feed): 591.975
- 20-day cumulative weight gain, estimated marginal Mean (straight run broilers [1]; Table 11, 12 ppm in feed): 618.934
- 20-day cumulative weight gain, Duncan homogeneous subsets (straight run broilers [1]; Table 12, 6 ppm in feed): 591.9750
- 20-day cumulative weight gain, Duncan homogeneous subsets (straight run broilers [1]; Table 12, 12 ppm in feed): 618.9340
- 20-day cumulative feed conversion rate, Mean (straight run broilers [1]; Table 13, 6 ppm in feed): 1.5065
- 20-day cumulative feed conversion rate, Mean (straight run broilers [1]; Table 13, 12 ppm in feed): 1.4959
- 20-day cumulative feed conversion rate, estimated marginal Mean (straight run broilers [1]; Table 15, 6 ppm in feed): 1.506
- 20-day cumulative feed conversion rate, estimated marginal Mean (straight run broilers [1]; Table 15, 12 ppm in feed): 1.496
- 20-day cumulative feed conversion rate, Duncan homogeneous subsets (straight run broilers [1]; Table 16, 6 ppm in feed): 1.5065
- 20-day cumulative feed conversion rate, Duncan homogeneous subsets (straight run broilers [1]; Table 16, 12 ppm in feed): 1.4959
- MIC (Pseudomonas): > 100 microgram/ml
- only known in vitro method to inactivate [2]: pH 1.0 plus 100 °C overnight
- MIC (E. coli): > 20 microgram/ml
- efficacy against colibacillosis ([3]; 3 to 4 week old naive broiler chickens, simulated commercial conditions): highly effective
- feed/gain advantage over monensin and BMD fed alone and in combination ([3]; Day 42): ≥ 10 point
- weight gain advantage over monensin and BMD fed alone and in combination ([3]; Day 42): ≥ 20 point
- Day 42 Feed/Gain [3, 7]: 1.722^ab
- Day 42 Gain/Bird [3, 7]: 4.333^ab lb
- Day 42 Mortality (%) ([3]; acute and chronic colibacillosis, MON 99 ppm, BT1583 12 ppm, BMD 55 ppm): 2.75^a %
- Day 42 Adjusted Feed/Gain ([3]; adjusted for mortality weight, MON 99 ppm, BT1583 12 ppm, BMD 55 ppm): 1.704^ab
- Additional weight gain (%) (Broiler Chicken [4]; Study 1-1, 10 ppm): 17%
- Feed conversion improvement (point) (Broiler Chicken [4]; Study 1-1, 10 ppm): 7 point
- Additional weight gain (%) (Broiler Chicken [4]; Study 1-2, 30 ppm): 17%
- Feed conversion improvement (point) (Broiler Chicken [4]; Study 1-2, 30 ppm): 8 point
- MIC (Gram-positive bacteria): 1 microgram/ml
- Additional weight gain (%) (Broiler Chicken [5]; [8]): 7.1%
- Feed conversion improvement (point) (Broiler Chicken [5]; [8]): 13 point
- Additional weight gain (%) (Broiler Chicken [5]; [9]): 9.3%
- Feed conversion improvement (point) (Broiler Chicken [5]; [9]): 17 point
- Additional weight gain (%) (straight run broilers [6]; Study 3-1, 12 ppm): 16%
- Feed conversion improvement (point) (straight run broilers [6]; Study 3-1, 12 ppm): 9 point
- Additional weight gain (%) (straight run broilers [6]; [10]): 5.4%
- Feed conversion improvement (point) (straight run broilers [6]; [10]): 9 point
- 20-day cumulative weight gain, Mean (straight run broilers [6]; Table 18, BT1583 12 ppm, BMD 50 ppm, COB 90 ppm, alone or combined): 831.7396
- 21-day cumulative weight gain, estimated marginal Mean (straight run broilers [6]; Table 20, BT1583 12 ppm, BMD 50 ppm, COB 90 ppm, alone or combined): 831.740
- 21-day cumulative weight gain, Duncan homogeneous subsets (straight run broilers [6]; Table 21, BT1583 12 ppm, BMD 50 ppm, COB 90 ppm, alone or combined): 831.7396
- 20-day cumulative feed conversion rate, Mean (straight run broilers [6]; Table 22, BT1583 12 ppm, BMD 50 ppm, COB 90 ppm, alone or combined): 1.3308
- 21-day cumulative feed conversion rate, estimated marginal Mean (straight run broilers [6]; Table 24, BT1583 12 ppm, BMD 50 ppm, COB 90 ppm, alone or combined): 1.331
- 20-day cumulative feed conversion rate, Duncan homogeneous subsets (straight run broilers [6]; Table 25, BT1583 12 ppm, BMD 50 ppm, COB 90 ppm, alone or combined): 1.3308
- cleavage by carboxypeptidase Y (carboxypeptidase Y): resistant
